Reference: PubChem BioAssay (NCI)
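The concentration for 50% growth inhibition is given as GI50. The concentration for full growth arrest is given as TGI.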

What was measured:
Assay in all cases: inhibition of tumour cell growth, NCI panel, 384-well format
MOLT-4 leukemia = test system: MOLT-4 leukemia
K-562 leukemia = test system: K-562 leukemia
COLO 205 colon = test system: COLO 205 colon
MALME-3M melanoma = test system: MALME-3M melanoma
NCI-H322M lung = test system: NCI-H322M lung
OVCAR-4 ovarian = test system: OVCAR-4 ovarian
PC-3 prostate = test system: PC-3 prostate
HOP-92 NSCLC = test system: HOP-92 NSCLC
SW-620 colon = test system: SW-620 colon
LOX IMVI melanoma = test system: LOX IMVI melanoma
HL-60(TB) leukemia = test system: HL-60(TB) leukemia
RPMI-8226 leukemia = test system: RPMI-8226 leukemia
M14 melanoma = test system: M14 melanoma
SK-MEL-5 melanoma = test system: SK-MEL-5 melanoma
SK-MEL-2 melanoma = test system: SK-MEL-2 melanoma
SF-295 CNS = test system: SF-295 CNS
SNB-19 CNS = test system: SNB-19 CNS
KM12 colon = test system: KM12 colon
NCI-H522 lung = test system: NCI-H522 lung
CAKI-1 renal = test system: CAKI-1 renal
U251 glioblastoma = test system: U251 glioblastoma
EKVX NSCLC = test system: EKVX NSCLC
SK-OV-3 ovarian = test system: SK-OV-3 ovarian
DU-145 prostate = test system: DU-145 prostate
MDA-MB-435 melanoma = test system: MDA-MB-435 melanoma
MDA-MB-468 breast = test system: MDA-MB-468 breast
UACC-62 melanoma = test system: UACC-62 melanoma
A498 renal = test system: A498 renal
TK-10 renal = test system: TK-10 renal
BT-549 breast = test system: BT-549 breast
SF-539 CNS = test system: SF-539 CNS
NCI/ADR-RES ovarian = test system: NCI/ADR-RES ovarian
RXF 393 renal = test system: RXF 393 renal
MDA-MB-231 breast = test system: MDA-MB-231 breast
MCF7 breast = test system: MCF7 breast
OVCAR-3 ovarian = test system: OVCAR-3 ovarian
CCRF-CEM leukemia = test system: CCRF-CEM leukemia
ACHN renal = test system: ACHN renal
UACC-257 melanoma = test system: UACC-257 melanoma
NCI-H226 lung = test system: NCI-H226 lung
SF-268 CNS = test system: SF-268 CNS
HCT-116 colon = test system: HCT-116 colon
NCI-H23 lung = test system: NCI-H23 lung
HCT-15 colon = test system: HCT-15 colon
HOP-62 NSCLC = test system: HOP-62 NSCLC
IGROV1 ovarian = test system: IGROV1 ovarian
SN12C renal = test system: SN12C renal
NCI-H460 NSCLC = test system: NCI-H460 NSCLC
786-0 renal = test system: 786-0 renal
SNB-75 CNS = test system: SNB-75 CNS
SK-MEL-28 melanoma = test system: SK-MEL-28 melanoma
HCC-2998 colon = test system: HCC-2998 colon
A549 NSCLC = test system: A549 NSCLC
T-47D breast = test system: T-47D breast
OVCAR-8 ovarian = test system: OVCAR-8 ovarian
UO-31 renal = test system: UO-31 renal
HS 578T breast = test system: HS 578T breast
HT29 colon = test system: HT29 colon
OVCAR-5 ovarian = test system: OVCAR-5 ovarian
SR leukemia = test system: SR leukemia

## CCn1nc(C2CCN(C(=O)CCO)CC2)nc1-c1cnc(N)c(-c2nnc(C(C)(C)C)o2)n1
MOLT-4 leukemia
  GI50: 1.11 µM
  TGI: 8.87 µM
K-562 leukemia
  GI50: 17.3 µM
  TGI: 44.7 µM
COLO 205 colon
  GI50: 6.8 µM
  TGI: 23.9 µM
MALME-3M melanoma
  GI50: 7.64 µM
  TGI: 59.7 µM
NCI-H322M lung
  GI50: 5 µM
  TGI: > 100 µM
OVCAR-4 ovarian
  GI50: 32.9 µM
  TGI: > 100 µM
PC-3 prostate
  GI50: 3.65 µM
  TGI: > 100 µM
HOP-92 NSCLC
  GI50: 3.35 µM
  TGI: > 100 µM
SW-620 colon
  GI50: 34.4 µM
  TGI: > 100 µM
LOX IMVI melanoma
  GI50: 10.1 µM
  TGI: 23.8 µM
HL-60(TB) leukemia
  GI50: 0.377 µM
  TGI: 12.2 µM
RPMI-8226 leukemia
  GI50: 16.5 µM
  TGI: 30.9 µM
M14 melanoma
  GI50: 16 µM
  TGI: > 100 µM
SK-MEL-5 melanoma
  GI50: 8.62 µM
  TGI: 36.9 µM
SK-MEL-2 melanoma
  GI50: 17.3 µM
  TGI: > 100 µM
SF-295 CNS
  GI50: 0.993 µM
  TGI: > 100 µM
SNB-19 CNS
  GI50: 35.2 µM
  TGI: > 100 µM
KM12 colon
  GI50: 13.3 µM
  TGI: 32.3 µM
NCI-H522 lung
  GI50: 15.1 µM
  TGI: 38.6 µM
CAKI-1 renal
  GI50: 4.7 µM
  TGI: > 100 µM
U251 glioblastoma
  GI50: 41.7 µM
  TGI: > 100 µM
EKVX NSCLC
  GI50: 3.08 µM
  TGI: 30 µM
SK-OV-3 ovarian
  GI50: 0.599 µM
  TGI: 14.8 µM
DU-145 prostate
  GI50: 13.7 µM
  TGI: 100 µM
MDA-MB-435 melanoma
  GI50: 11.3 µM
  TGI: > 100 µM
MDA-MB-468 breast
  GI50: 2.8 µM
  TGI: 17.1 µM
UACC-62 melanoma
  GI50: 6.81 µM
  TGI: > 100 µM
A498 renal
  GI50: 18.1 µM
  TGI: > 100 µM
TK-10 renal
  GI50: 2.71 µM
  TGI: 76.4 µM
BT-549 breast
  GI50: 6.24 µM
  TGI: 54.3 µM
SF-539 CNS
  GI50: 16.6 µM
  TGI: > 100 µM
NCI/ADR-RES ovarian
  GI50: 19.4 µM
  TGI: 84.1 µM
RXF 393 renal
  GI50: 2.42 µM
  TGI: 15.7 µM
MDA-MB-231 breast
  GI50: 80.9 µM
  TGI: > 100 µM
MCF7 breast
  GI50: 0.2 µM
  TGI: > 100 µM
OVCAR-3 ovarian
  GI50: 7 µM
  TGI: 22.1 µM
CCRF-CEM leukemia
  GI50: 6.7 µM
  TGI: 23.4 µM
ACHN renal
  GI50: 15.5 µM
  TGI: > 100 µM
UACC-257 melanoma
  GI50: 22.2 µM
  TGI: > 100 µM
NCI-H226 lung
  GI50: 24.6 µM
  TGI: > 100 µM
SF-268 CNS
  GI50: 24.4 µM
  TGI: > 100 µM
HCT-116 colon
  GI50: 23.2 µM
  TGI: > 100 µM
NCI-H23 lung
  GI50: 16.7 µM
  TGI: 73.7 µM
HCT-15 colon
  GI50: 15.8 µM
  TGI: > 100 µM
HOP-62 NSCLC
  GI50: 42.7 µM
  TGI: > 100 µM
IGROV1 ovarian
  GI50: 0.32 µM
  TGI: 1.81 µM
SN12C renal
  GI50: 5.27 µM
  TGI: > 100 µM
NCI-H460 NSCLC
  GI50: 1.19 µM
  TGI: > 100 µM
786-0 renal
  GI50: 7.59 µM
  TGI: > 100 µM
SNB-75 CNS
  GI50: 1.13 µM
  TGI: 13.2 µM
SK-MEL-28 melanoma
  GI50: 5.59 µM
  TGI: > 100 µM
HCC-2998 colon
  GI50: 7.79 µM
  TGI: 47 µM
A549 NSCLC
  GI50: 5.24 µM
  TGI: > 100 µM
T-47D breast
  GI50: 0.17 µM
  TGI: 0.832 µM
OVCAR-8 ovarian
  GI50: 29.8 µM
  TGI: > 100 µM
UO-31 renal
  GI50: 4.31 µM
  TGI: 77.2 µM
HS 578T breast
  GI50: 6.89 µM
  TGI: 31.8 µM
HT29 colon
  GI50: 3.02 µM
  TGI: 25.5 µM
OVCAR-5 ovarian
  GI50: 10.7 µM
  TGI: > 100 µM

## CCc1cc2c(c(OCC(F)(F)F)c(C(=O)NC3CCN(C(=O)CO)CC3)n2C)c(=O)n1CC(=O)c1ccccc1
MOLT-4 leukemia
  GI50: 18.3 µM
  TGI: 34.6 µM
K-562 leukemia
  GI50: 33.6 µM
  TGI: > 100 µM
COLO 205 colon
  GI50: > 100 µM
  TGI: > 100 µM
MALME-3M melanoma
  GI50: 73.9 µM
  TGI: > 100 µM
NCI-H322M lung
  GI50: 72.6 µM
  TGI: > 100 µM
OVCAR-4 ovarian
  GI50: 37.1 µM
  TGI: > 100 µM
PC-3 prostate
  GI50: 42.1 µM
  TGI: > 100 µM
HOP-92 NSCLC
  GI50: 58.6 µM
  TGI: > 100 µM
SW-620 colon
  GI50: 57 µM
  TGI: > 100 µM
HL-60(TB) leukemia
  GI50: 25.3 µM
  TGI: 40.7 µM
M14 melanoma
  GI50: > 100 µM
  TGI: > 100 µM
SK-MEL-5 melanoma
  GI50: 23.2 µM
  TGI: > 100 µM
SK-MEL-2 melanoma
  GI50: 30.1 µM
  TGI: > 100 µM
SF-295 CNS
  GI50: 24.9 µM
  TGI: 98.7 µM
SNB-19 CNS
  GI50: > 100 µM
  TGI: > 100 µM
KM12 colon
  GI50: 42.4 µM
  TGI: > 100 µM
NCI-H522 lung
  GI50: 69.8 µM
  TGI: > 100 µM
CAKI-1 renal
  GI50: 39.6 µM
  TGI: > 100 µM
U251 glioblastoma
  GI50: 52.6 µM
  TGI: > 100 µM
EKVX NSCLC
  GI50: 40.3 µM
  TGI: > 100 µM
SK-OV-3 ovarian
  GI50: 45.8 µM
  TGI: > 100 µM
DU-145 prostate
  GI50: 82.5 µM
  TGI: > 100 µM
MDA-MB-435 melanoma
  GI50: > 100 µM
  TGI: > 100 µM
MDA-MB-468 breast
  GI50: 20.6 µM
  TGI: 79.2 µM
UACC-62 melanoma
  GI50: 32.6 µM
  TGI: > 100 µM
A498 renal
  GI50: 33.6 µM
  TGI: > 100 µM
TK-10 renal
  GI50: 33.9 µM
  TGI: > 100 µM
BT-549 breast
  GI50: 57.9 µM
  TGI: > 100 µM
SF-539 CNS
  GI50: 37.8 µM
  TGI: > 100 µM
SR leukemia
  GI50: 17.3 µM
  TGI: 31.4 µM
RXF 393 renal
  GI50: 1.91 µM
  TGI: 12.4 µM
MDA-MB-231 breast
  GI50: 37.7 µM
  TGI: > 100 µM
MCF7 breast
  GI50: 9.23 µM
  TGI: > 100 µM
OVCAR-3 ovarian
  GI50: 40 µM
  TGI: > 100 µM
ACHN renal
  GI50: 31.6 µM
  TGI: > 100 µM
UACC-257 melanoma
  GI50: 68.8 µM
  TGI: > 100 µM
NCI-H226 lung
  GI50: 22.4 µM
  TGI: > 100 µM
SF-268 CNS
  GI50: 68.8 µM
  TGI: > 100 µM
HCT-116 colon
  GI50: 35.6 µM
  TGI: > 100 µM
NCI-H23 lung
  GI50: 79.9 µM
  TGI: > 100 µM
HCT-15 colon
  GI50: 61.9 µM
  TGI: > 100 µM
HOP-62 NSCLC
  GI50: 28.2 µM
  TGI: > 100 µM
IGROV1 ovarian
  GI50: 58.2 µM
  TGI: > 100 µM
SN12C renal
  GI50: > 100 µM
  TGI: > 100 µM
NCI-H460 NSCLC
  GI50: 27.5 µM
  TGI: > 100 µM
786-0 renal
  GI50: 18.4 µM
  TGI: 36.6 µM
SNB-75 CNS
  GI50: 54.9 µM
  TGI: > 100 µM
SK-MEL-28 melanoma
  GI50: 38.9 µM
  TGI: > 100 µM
A549 NSCLC
  GI50: 46.8 µM
  TGI: > 100 µM
T-47D breast
  GI50: 29.9 µM
  TGI: > 100 µM
OVCAR-8 ovarian
  GI50: 54.2 µM
  TGI: > 100 µM
UO-31 renal
  GI50: 19.7 µM
  TGI: 51.6 µM
HS 578T breast
  GI50: 37.7 µM
  TGI: > 100 µM
HT29 colon
  GI50: 41.7 µM
  TGI: > 100 µM
OVCAR-5 ovarian
  GI50: > 100 µM
  TGI: > 100 µM
